{
  "source": "ChEMBL document CHEMBL2074491",
  "about": "“Transport of drugs across the hepatic sinusoidal membrane: sinusoidal drug influx and efflux in the liver” (Semin Liver Dis, 2000)",
  "key": {"[1]": {"test_system": "Rattus norvegicus", "experiment": "TP_TRANSPORTER: Northern blot in vivo, kidney of SD rat", "type": "functional, organism-based", "settings": "Sprague Dawley"}, "[2]": {"biological_target": "T1, Solute carrier organic anion transporter family member 1A1 (Rattus norvegicus, UniProt P46720)", "T1 sequence (P46720 whole entry)": "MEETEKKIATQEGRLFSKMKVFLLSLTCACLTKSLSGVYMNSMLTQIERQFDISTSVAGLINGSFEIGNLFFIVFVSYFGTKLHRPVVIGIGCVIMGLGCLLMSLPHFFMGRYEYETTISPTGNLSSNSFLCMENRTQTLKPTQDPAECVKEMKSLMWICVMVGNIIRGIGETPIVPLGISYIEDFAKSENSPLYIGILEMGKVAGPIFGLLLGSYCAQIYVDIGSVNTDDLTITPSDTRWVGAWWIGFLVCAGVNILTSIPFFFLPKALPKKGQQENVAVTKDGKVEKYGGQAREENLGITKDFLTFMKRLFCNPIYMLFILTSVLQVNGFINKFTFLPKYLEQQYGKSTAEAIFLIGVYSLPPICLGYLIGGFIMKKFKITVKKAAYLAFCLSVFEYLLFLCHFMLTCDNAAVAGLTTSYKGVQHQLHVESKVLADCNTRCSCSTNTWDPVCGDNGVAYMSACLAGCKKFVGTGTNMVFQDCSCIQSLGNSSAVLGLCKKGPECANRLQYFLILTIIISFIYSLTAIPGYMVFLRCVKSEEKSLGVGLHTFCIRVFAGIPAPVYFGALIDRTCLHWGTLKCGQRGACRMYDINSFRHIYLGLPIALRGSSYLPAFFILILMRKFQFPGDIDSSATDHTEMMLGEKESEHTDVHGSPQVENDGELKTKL", "experiment": "TP_TRANSPORTER: transport activity", "type": "functional"}},
  "data": [
    {"smiles": "C[C@]12CC[C@@H]3c4ccc(O)cc4CC[C@H]3[C@@H]1CC[C@@H]2O", "values": [
      {"measurement": "Activity", "setting": "[1]", "value": "is not a substrate [-]"}
    ]},
    {"smiles": "CCCCC[C@H](O)/C=C/[C@@H]1[C@@H](C/C=C\\CCCC(=O)O)[C@@H](O)C[C@H]1O", "note": "[DINOPROST]", "values": [
      {"measurement": "Activity", "setting": "[2]", "value": "is not a substrate [-]"}
    ]}
  ]
}
